Structures are written as SMILES. Where two headings read alike, the source gives them in different places.

These results are taken from US9113629B2, “4-amino-6-(4-substituted-phenyl)-picolinates and 6-amino-2-(4-substituted-phenyl)-pyrimidine-4-carboxylates and their use as herbicides” (DOW AGROSCIENCES LLC, priority 2013, dated 2015).

Data set [1] concerns Key Broadleaf Weed and Crop Species. Description: Post-emergent Test II herbicidal activity (Table 5). The data set is classed as in vivo. The following applies: post-emergence, 336 h, post-emergent, 14 days after application; for pest or weed control at 140 g/ha: 140 g ai/ha; for pest or weed control at 70 g/ha: 70 g ai/ha. Put shortly:
(§1)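 Spray rates: a highest rate plus ½×, ¼×, ⅛×, 1/16×, all delivered at 187 L/ha to plants at the first–second true leaf stage. Readout is a visual percent injury score at 14 d, where 100 means complete kill.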

Data set [2] concerns Key Grass and Sedge Weeds as well as Grass Crops. Nature of the data set: Post-emergent Test II herbicidal activity (Table 6). The data set is classed as in vivo. The following applies: post-emergence, 336 h; for pest or weed control at 140 g/ha: application rate 140 g ai/ha; for pest or weed control at 70 g/ha: application rate 70 g ai/ha. Put shortly:
as §1

[3] abbreviates: ABUTH: velvetleaf (Abutilon theophrasti), read-out: Visual Growth Reduction (%) 14 Days After Application ABUTH.
Where [4] appears, read: AMARE: redroot pigweed (Amaranthus retroflexus), read-out: Visual Growth Reduction (%) 14 Days After Application AMARE.
Setting [5] is: BRSNN: oilseed-rape, canola (Brassica napus), read-out: Visual Growth Reduction (%) 14 Days After Application BRSNN.
Where [6] appears, read: CHEAL: lambsquarters (Chenopodium album), read-out: Visual Growth Reduction (%) 14 Days After Application CHEAL.
Setting [7] is: EPHHL: wild poinsettia (Euphorbia heterophylla), read-out: Visual Growth Reduction (%) 14 Days After Application EPHHL.
Setting [8] is: HELAN: sunflower (Helianthus annuus), read-out: Visual Growth Reduction (%) 14 Days After Application HELAN.
The mark [9] stands for this setting: VIOTR: wild pansy (Viola tricolor), read-out: Visual Growth Reduction (%) 14 Days After Application VIOTR.
[10] abbreviates: Triticum aestivum, TRZSS (wheat), read-out: Visual Growth Reduction (%) 14 Days After Application, TRZSS.
Where [11] appears, read: CYPES: yellow nutsedge (Cyperus esculentus), read-out: Visual Growth Reduction (%) 14 Days After Application, CYPES.
[12] abbreviates: DIGSA: crabgrass (Digitaria sanguinalis), read-out: Visual Growth Reduction (%) 14 Days After Application, DIGSA.
[13] abbreviates: ECHCG: barnyardgrass (Echinochloa crus-galli), read-out: Visual Growth Reduction (%) 14 Days After Application, ECHCG.
Setting [14] is: ORYSA: rice (Oryza sativa), read-out: Visual Growth Reduction (%) 14 Days After Application, ORYSA.
The mark [15] stands for this setting: SETFA: giant foxtail (Setaria faberi), read-out: Visual Growth Reduction (%) 14 Days After Application, SETFA.
Setting [16] is: SORVU: grain sorghum (Sorghum vulgare), read-out: Visual Growth Reduction (%) 14 Days After Application, SORVU.
[17] abbreviates: ZEAMX: maize, corn (Zea mays), read-out: Visual Growth Reduction (%) 14 Days After Application, ZEAMX.
Setting [18] is: TRZSS (wheat, Triticum aestivum), read-out: Visual Growth Reduction (%) 14 Days After Application, TRZSS.

Broadly, the melting point is the temperature of the solid-liquid transition. On to `COc1c(N)nc(-c2ccc(C#N)cc2)nc1C(=O)O` [Compound 25], for which the melting point was in the range of 185.2 to 186.1 °C. In addition, the pest or weed control at 140 g/ha in data set [1] (setting [3]) was in the range of 0 to 29%. Besides, in data set [1] (setting [4]), the pest or weed control at 140 g/ha was in the range of 0 to 29%. Also, in data set [1] (setting [5]), the pest or weed control at 140 g/ha was in the range of 0 to 29%. Moreover, the pest or weed control at 140 g/ha in data set [1] (setting [6]) is 0 to 29%. In data set [1] (setting [7]), the pest or weed control at 140 g/ha lay within 0 to 29%. In addition, the pest or weed control at 140 g/ha in data set [1] (setting [8]) lay in the range of 0 to 29%. Also, the pest or weed control at 140 g/ha in data set [1] (setting [9]) was in the range of 0 to 29%. Besides, the pest or weed control at 140 g/ha in data set [2] (setting [10]) fell in the range of 0 to 29%. Further, in data set [2] (setting [11]), the pest or weed control at 140 g/ha lay within 0 to 29%. Besides, in data set [2] (setting [12]), the pest or weed control at 140 g/ha was in the range of 0 to 29%. Besides, the pest or weed control at 140 g/ha in data set [2] (setting [13]) is 0 to 29%. Moreover, the pest or weed control at 140 g/ha in data set [2] (setting [14]) was 0 to 29%. In addition, the pest or weed control at 140 g/ha in data set [2] (setting [15]) was in the range of 0 to 29%. In data set [2] (setting [16]), the pest or weed control at 140 g/ha was 0 to 29%. Besides, the pest or weed control at 140 g/ha in data set [2] (setting [17]) is 0 to 29%.
For the compound `COC(=O)c1nc(-c2ccc(C#N)cc2)c(Cl)c(N)c1Cl` [Compound 1], the melting point was in the range of 133.4 to 134.8 °C. Besides, the pest or weed control at 140 g/ha in data set [1] (setting [3]) lay in the range of 60 to 74%. Further, the pest or weed control at 140 g/ha in data set [1] (setting [4]) is 60 to 74%. Also, the pest or weed control at 140 g/ha in data set [1] (setting [5]) is 0 to 29%. In data set [1] (setting [6]), the pest or weed control at 140 g/ha was 85 to 94%. In data set [1] (setting [7]), the pest or weed control at 140 g/ha was 0 to 29%. In addition, the pest or weed control at 140 g/ha in data set [1] (setting [8]) is 95 to 100%. Moreover, the pest or weed control at 140 g/ha in data set [1] (setting [9]) was 0 to 29%. Further, the pest or weed control at 140 g/ha in data set [2] (setting [10]) was 0 to 29%. Further, the pest or weed control at 140 g/ha in data set [2] (setting [11]) was 30 to 44%. Besides, the pest or weed control at 140 g/ha in data set [2] (setting [12]) fell in the range of 0 to 29%. Also, the pest or weed control at 140 g/ha in data set [2] (setting [13]) lay in the range of 0 to 29%. Moreover, the pest or weed control at 140 g/ha in data set [2] (setting [14]) was 0 to 29%. Further, the pest or weed control at 140 g/ha in data set [2] (setting [15]) fell in the range of 0 to 29%. In addition, in data set [2] (setting [16]), the pest or weed control at 140 g/ha lay within 0 to 29%. In data set [2] (setting [17]), the pest or weed control at 140 g/ha lay within 0 to 29%.
`COC(=O)c1nc(-c2ccc(Br)cc2)c(C)c(N)c1Cl` [Compound 81, methyl 4-amino-6-(4-bromophenyl)-3-chloro-5-methylpicolinate] showed a melting point of 128 to 130 °C. Moreover, the pest or weed control at 140 g/ha in data set [1] (setting [3]) lay in the range of 95 to 100%. In addition, in data set [1] (setting [4]), the pest or weed control at 140 g/ha was 95 to 100%. The pest or weed control at 140 g/ha in data set [1] (setting [5]) was 60 to 74%. Besides, the pest or weed control at 140 g/ha in data set [1] (setting [6]) lay in the range of 95 to 100%. In addition, in data set [1] (setting [7]), the pest or weed control at 140 g/ha is 75 to 84%. In data set [1] (setting [8]), the pest or weed control at 140 g/ha lay in the range of 95 to 100%. In data set [1] (setting [9]), the pest or weed control at 140 g/ha was 0 to 29%. Besides, the pest or weed control at 140 g/ha in data set [2] (setting [10]) was 45 to 59%. Besides, the pest or weed control at 140 g/ha in data set [2] (setting [11]) lay within 0 to 29%. Moreover, in data set [2] (setting [12]), the pest or weed control at 140 g/ha fell in the range of 45 to 59%. The pest or weed control at 140 g/ha in data set [2] (setting [13]) was 0 to 29%. In addition, the pest or weed control at 140 g/ha in data set [2] (setting [14]) lay within 0 to 29%. The pest or weed control at 140 g/ha in data set [2] (setting [15]) lay within 60 to 74%. The pest or weed control at 140 g/ha in data set [2] (setting [16]) was in the range of 75 to 84%. Besides, the pest or weed control at 140 g/ha in data set [2] (setting [17]) lay in the range of 75 to 84%.
For `C#Cc1ccc(-c2nc(C(=O)OC)c(Cl)c(N)c2C)cc1F` [Compound 151, methyl 4-amino-3-chloro-6-(4-ethynyl-3-fluorophenyl)-5-methylpicolinate], the melting point was in the range of 130 to 132 °C. In addition, in data set [1] (setting [3]), the pest or weed control at 70 g/ha is 95 to 100% and the pest or weed control at 140 g/ha is 95 to 100%. Besides, in data set [1] (setting [5]), the pest or weed control at 70 g/ha fell in the range of 75 to 84% and the pest or weed control at 140 g/ha is 85 to 94%. Also, in data set [1] (setting [6]), the pest or weed control at 70 g/ha was in the range of 95 to 100% and the pest or weed control at 140 g/ha fell in the range of 95 to 100%. Further, in data set [1] (setting [7]), the pest or weed control at 70 g/ha lay within 0 to 29% and the pest or weed control at 140 g/ha lay in the range of 0 to 29%. For the same compound, in data set [1] (setting [8]), the pest or weed control at 70 g/ha was in the range of 85 to 94% and the pest or weed control at 140 g/ha fell in the range of 85 to 94%. Besides, in data set [1] (setting [9]), the pest or weed control at 70 g/ha was in the range of 0 to 29% and the pest or weed control at 140 g/ha is 0 to 29%. For the same compound, in data set [2] (setting [11]), the pest or weed control at 70 g/ha lay in the range of 0 to 29% and the pest or weed control at 140 g/ha lay in the range of 75 to 84%. Also, in data set [2] (setting [12]), the pest or weed control at 70 g/ha was 0 to 29% and the pest or weed control at 140 g/ha lay within 0 to 29%. Besides, in data set [2] (setting [13]), the pest or weed control at 70 g/ha lay in the range of 0 to 29% and the pest or weed control at 140 g/ha was in the range of 45 to 59%. Besides, in data set [2] (setting [14]), the pest or weed control at 70 g/ha fell in the range of 0 to 29% and the pest or weed control at 140 g/ha fell in the range of 0 to 29%. In data set [2] (setting [15]), the pest or weed control at 70 g/ha is 0 to 29% and the pest or weed control at 140 g/ha was 60 to 74%. Moreover, in data set [2] (setting [16]), the pest or weed control at 70 g/ha is 60 to 74% and the pest or weed control at 140 g/ha was in the range of 60 to 74%. Further, in data set [2] (setting [18]), the pest or weed control at 70 g/ha lay in the range of 0 to 29% and the pest or weed control at 140 g/ha lay within 0 to 29%. Moreover, in data set [2] (setting [17]), the pest or weed control at 70 g/ha was 60 to 74% and the pest or weed control at 140 g/ha lay in the range of 75 to 84%.
For `C#Cc1ccc(-c2nc(C(=O)O)c(Cl)c(N)c2Cl)cc1` [Compound 153], the melting point lay within 160.9 to 162.6 °C. Further, the pest or weed control at 140 g/ha in data set [1] (setting [3]) fell in the range of 95 to 100%. Besides, in data set [1] (setting [4]), the pest or weed control at 140 g/ha was in the range of 95 to 100%. Besides, in data set [1] (setting [5]), the pest or weed control at 140 g/ha is 95 to 100%. The pest or weed control at 140 g/ha in data set [1] (setting [6]) was in the range of 95 to 100%. In addition, the pest or weed control at 140 g/ha in data set [1] (setting [7]) was 0 to 29%. The pest or weed control at 140 g/ha in data set [1] (setting [8]) was in the range of 95 to 100%. For the same compound, the pest or weed control at 140 g/ha in data set [1] (setting [9]) was 0 to 29%. Also, the pest or weed control at 140 g/ha in data set [2] (setting [10]) is 60 to 74%. Further, the pest or weed control at 140 g/ha in data set [2] (setting [11]) is 45 to 59%. Moreover, the pest or weed control at 140 g/ha in data set [2] (setting [12]) lay in the range of 45 to 59%. The pest or weed control at 140 g/ha in data set [2] (setting [13]) was 0 to 29%. For the same compound, the pest or weed control at 140 g/ha in data set [2] (setting [14]) lay in the range of 0 to 29%. The pest or weed control at 140 g/ha in data set [2] (setting [15]) fell in the range of 75 to 84%. In data set [2] (setting [16]), the pest or weed control at 140 g/ha lay within 0 to 29%. The pest or weed control at 140 g/ha in data set [2] (setting [17]) lay in the range of 60 to 74%.
